Like-named read-outs stand apart in the source and are kept apart here.
Biological target: T1, KSP motor domain (Homo sapiens, UniProt P52732)
T1 sequence (P52732 18-359 limits assumed): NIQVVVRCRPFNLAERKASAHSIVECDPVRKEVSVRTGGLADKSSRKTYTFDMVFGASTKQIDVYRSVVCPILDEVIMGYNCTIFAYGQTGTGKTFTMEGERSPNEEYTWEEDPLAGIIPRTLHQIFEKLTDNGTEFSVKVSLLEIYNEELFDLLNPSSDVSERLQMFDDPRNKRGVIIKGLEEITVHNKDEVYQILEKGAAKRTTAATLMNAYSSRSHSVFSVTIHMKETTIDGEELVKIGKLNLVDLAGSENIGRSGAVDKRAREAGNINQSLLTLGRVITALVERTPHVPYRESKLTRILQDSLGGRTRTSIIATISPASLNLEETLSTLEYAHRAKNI
Assay: biochemical

[1] = KSP inhibitory activity, end-point assay, class symbols (Table 1), read-out: IC50
[2] = exact IC50 values, end-point assay (Table 2), read-out: IC50
[3] = KSP inhibitory activity, end-point assay, class symbols (Table 1)

SMILES | IC50 [1] [nM] | further results
CCC(C)(C)C1CCc2nc3sc(C#N)c(N)c3cc2C1 (centres unmarked) [Example 12] | < 100 | –
CC(C)(C)C1CCc2nc3sc(C(=O)N[C@H](C#N)c4ccccc4)cc3cc2C1 (some centres unmarked) [Example 165] | > 10000 | –
Cn1nc(C(F)(F)F)c(C(=O)Nc2cccc([C@@H](CN)NC(=O)c3cc4cc5c(nc4s3)CC[C@@H](C(C)(C)C)C5)c2)c1Cl [Example 246] | < 100 | –
CC(C)(C)C1CCc2nc3sc(CC#N)cc3cc2C1 (centres unmarked) [Example 148] | 1000 to 10000 | –
CC(C)(C)C1CCc2nc3sc(C(=O)NCCN4CCOCC4)cc3cc2C1 (centres unmarked) [Example 194, 6-(1,1-Dimethylethyl)-5,7,8-Tetrahydro-N-[2-(4-Morpholinyl)ethyl]thieno[2,3-b]quinoline-2-Carboxamide] | 1000 to 10000 | –
CC(C)(C)C1CCc2nc3sc(C#N)cc3cc2C1 (single isomer, unassigned) [Example 63] | < 100 | IC50 [2]: 40 nM
CC(C)(C)C1CCc2nc3sc(C(=O)NC(CO)CO)cc3cc2C1 (centres unmarked) [Example 96] | 100 to 1000 | –
CC(O)CNC(=O)c1cc2cc3c(nc2s1)CCC(C(C)(C)C)C3 (centres unmarked) [Example 103] | 1000 to 10000 | –
CC(C)(C)C1CCc2nc3sc(C(=O)N[C@H](CN)c4cccc(-c5cccc6cccnc56)c4)cc3cc2C1 (stereo partly drawn) [Example 213, 6-tert-butyl-5,6,7,8-tetrahydro-thieno[2,3-b]quinoline-2-carboxylic acid [(1S)-2-amino-1-(3-quinolin-8-yl-phenyl)-ethyl]-amide] | 100 to 1000 | –
CC(C)(C)C1CCc2nc3sc(C(=O)Nc4ccccc4)cc3cc2C1 (centres unmarked) [Example 77] | > 10000 | –
CC(C)C1Cc2cc3cc(C#N)sc3nc2CC1C (centres unmarked) [Example 208, 6-isopropyl-7-methyl-5,6,7,8-tetrahydro-thieno[2,3,-b]quinoline-2-carbonitrile] | 100 to 1000 | –
CC(C)(C)C1CCc2nc3sc(NC=O)nc3cc2C1 (centres unmarked) [Example 134, N-(7-tert-Butyl-5,6,7,8-tetrahydrothiazolo[5,4-b]quinolin-2-yl)-formamide] | – | IC50 (nM) [3]: B/C
CC(C)(C)C1CCc2nc3sc(C(=O)N4CCC[C@@H]4C(=O)O)cc3cc2C1 (some centres unmarked) [Example 88] | > 10000 | –
CC(C)(C)C1CCc2nc3sc(C(=O)NCCN4CCCCC4)cc3cc2C1 (centres unmarked) [Example 198, 6-(1,1-Dimethylethyl)-5,6,7,8-Tetrahydro-N-[2-(1-Piperidinyl)ethyl]thieno[2,3-b]quinoline-2-Carboxamide] | 1000 to 10000 | –
CCCC(C)(C)C1CCc2nc3sc(C#N)c(N)c3cc2C1 (centres unmarked) [Example 10] | 100 to 1000 | –
CC(C)(C)C1CCc2nc3sc(C(=O)Nc4ccc(O)cc4N)cc3cc2C1 (centres unmarked) [Example 226G] | 100 to 1000 | –
CCC(C)(C)C1CCc2nc3sc(C(N)=O)cc3c(Cl)c2C1 (centres unmarked) [Example 115] | 1000 to 10000 | –
CC(C)(C)[C@@H]1CCc2nc3sc(C(=O)N[C@H](CN)c4cccc(NC(=O)c5ccc[nH]5)c4)cc3cc2C1 [Example 252] | < 100 | –
CC(C)(C)C1CCc2nc3sc(C(=O)NCCN4CCCC4)cc3cc2C1 (centres unmarked) [Example 199, 6-(1,1-Dimethylethyl)-5,6,7,8-tetrahydro-N-[2-(1-Pyrrolidinyl)ethyl]thieno[2,3-b]quinoline-2-Carboxamide] | 1000 to 10000 | –

SMILES | IC50 [1] [nM] | further results
CC(C)(C)C1CCc2nc3sc(C(=O)O)cc3cc2C1 (centres unmarked) [Example 73, 6-tert-Butyl-5,6,7,8-tetrahydrothieno[2,3-b]quinoline-2-carboxylic acid] | > 10000 | –
CC(C)(C)C1CCCc2nc3sc(C#N)c(N)c3cc2C1 (centres unmarked) [Example 40] | < 100 | IC50 [2]: 60 nM
CC(C)(C)C1CCc2nc3sc(CN)cc3cc2C1 (centres unmarked) [Example 153] | 1000 to 10000 | –
CC(C)=C/C=C1\CCc2nc3sc(C#N)c(N)c3cc2C1 [Example 36] | > 10000 | –
N#Cc1sc2nc3c(cc2c1N)CN(Cc1ccccc1)CC3 [Example 56] | > 10000 | –
CC(C)(C)[C@@H]1CCc2nc3sc(C(=O)N[C@H](CN)c4cccc(NC(=O)c5cn[nH]c5)c4)cc3cc2C1 [Example 237] | < 100 | IC50 [2]: 10 nM
COC(=O)[C@H]1C[C@@H](O)CN1C(=O)c1cc2cc3c(nc2s1)CCC(C(C)(C)C)C3 (some centres unmarked) [Example 92] | > 10000 | –
CC(C)(C)C1CCc2nc3sc(S(N)(=O)=O)cc3cc2C1 (centres unmarked) [Example 123, 6-tert-Butyl-5,6,7,8-tetrahydrothieno[2,3-b]quinoline-2-sulfonic acid amide] | 100 to 1000 | –
CC1CCc2nc3sc(C#N)c(N)c3cc2C1 (centres unmarked) [Example 13] | > 10000 | –
CC(C)(C)[C@@H]1CCc2nc3sc(C(=O)N[C@H](CN)c4cccc(NCc5cccnc5)c4)cc3cc2C1 [Example 282] | < 100 | –
Cc1cc(C(=O)Nc2ccc([C@@H](CN)NC(=O)c3cc4cc5c(nc4s3)CC[C@@H](C(C)(C)C)C5)cc2)no1 [Example 274] | < 100 | –
CC(C)(C)CC(C)(C)C1CCc2nc3sc(C#N)c(N)c3cc2C1 (centres unmarked) [Example 11] | > 10000 | –
C[Si](C)(C)C1CCc2nc3sc(C(N)=O)cc3cc2C1 (single isomer, unassigned) [Example 189, 5,6,8-Tetrahydro-6-(Trimethylsilyl)thieno[2,3-b]quinoline-2-Carboxamide] | – | IC50 (IC50 (nM), KSP inhibitory activity, end-point assay, class symbols (Table 1)): < 100 nM; IC50 (IC50 (nM), exact IC50 values, end-point assay (Table 2)): 50 nM
CC(C)CCC1CCc2nc3sc(C#N)c(N)c3cc2C1 (centres unmarked) [Example 20] | > 10000 | –
CC(C)(C)C1CCc2nc3sc(C(=O)N[C@H](CN)c4cccc(-c5ccccc5)c4)cc3cc2C1 (stereo partly drawn) [Example 211, 6-tert-butyl-5,6,7,8-tetrahydro-thieno[2,3-b]quinoline-2-carboxylic acid [(1S)-2-amino-1-biphenyl-3-yl-ethyl)-amide] | 100 to 1000 | –
CSc1nc2cc3c(nc2s1)CCC(C(C)(C)C)C3 (centres unmarked) [Example 129, 7-tert-butyl-2-methylsulfanyl-5,6,7,8-tetrahydrothiazolo[5,4-b]quinoline] | > 10000 | –
N#Cc1sc2nc3c(cc2c1N)CC(Cc1ccccc1)CC3 (centres unmarked) [Example 31] | > 10000 | –
CC(C)[C@@H](CN)NC(=O)c1cc2cc3c(nc2s1)CCC(C(C)(C)C)C3 (stereo partly drawn) [Example 175, 6-tert-butyl-5,6,7,8-tetrahydrothieno[2,3-b]quinoline-2-carboxylic acid [(1S)-1-aminomethyl-2-methylpropyl)amide] | 1000 to 10000 | –
CC(C)(C)C1CCc2nc3sc(C(=O)N[C@H](C#N)Cc4ccc(O)cc4)cc3cc2C1 (some centres unmarked) [Example 164] | 100 to 1000 | –

SMILES | IC50 [1] [nM] | further results
CN(C)C(=O)c1cc2cc3c(nc2s1)CCC(C(C)(C)C)C3 (centres unmarked) [Example 80] | > 10000 | –
CC(C)(C)C1CCc2nc3sc(S(C)(=O)=O)cc3cc2C1 (centres unmarked) [Example 122, 6-tert-Butyl-2-methanesulfonyl-5,6,7,8-tetrahydrothieno[2,3-b]quinoline] | 1000 to 10000 | –
Cn1cncc1C(=O)Nc1cccc([C@@H](CN)NC(=O)c2cc3cc4c(nc3s2)CC[C@@H](C(C)(C)C)C4)c1 [Example 251] | < 100 | –
CC(C)(C)C1CCc2nc3sc(N)nc3cc2C1 (centres unmarked) [Example 133, 7-tert-Butyl-5,6,7,8-tetrahydrothiazolo[5,4-b]quinolin-2-ylamine] | > 10000 | –
Cn1ccc(C(=O)Nc2cccc([C@@H](CN)NC(=O)c3cc4cc5c(nc4s3)CC[C@@H](C(C)(C)C)C5)c2)n1 [Example 239] | < 100 | –
CC(C)(C)C1CCc2nc3sc(C(N)=O)cc3cc2C1 (single isomer, unassigned; (+)) [Example 68, (+)-6-(1,1-dimethylethyl)-5,6,7,8-tetrahydrothieno[2,3-b]quinoline-2-carboxamide] | < 100 | IC50 [2]: 20 nM
CC(C)[C@@H](C#N)NC(=O)c1cc2cc3c(nc2s1)CCC(C(C)(C)C)C3 (stereo partly drawn) [Example 162, 6-tert-Butyl-5,6,7,8-tetrahydrothieno[2,3-b]quinoline-2-carboxylic acid [(1S)-1-cyano-2-methylpropyl]amide] | > 10000 | –
CC(C)(C)C1CCc2nc3sc(C(=O)N[C@H](C(=N)N)c4ccccc4)cc3cc2C1 (some centres unmarked) [Example 172] | 100 to 1000 | –
CC(C)(C)C1CCc2nc3sc(NC(N)=O)cc3cc2C1 (centres unmarked) [Example 125, (6-tert-Butyl-5,6,7,8-tetrahydrothieno[2,3-b]quinolin-2-yl)urea] | – | IC50 (nM) [3]: B/C
CC(C)(C)C1CCc2nc3sc(C(=O)N[C@H](CO)Cc4ccccc4)cc3cc2C1 (some centres unmarked) [Example 159] | > 10000 | –
CC(C)(C)C1CCc2nc3sc(-c4ncc(CN)o4)cc3cc2C1 (centres unmarked) [Example 186, [2-(6-tert-Butyl-5,6,7,8-tetrahydrothieno[2,3-b]quinolin-2-yl)oxazol-5-yl]methylamine] | 1000 to 10000 | –
CCC(C)(C)C1CCc2nc3sc(C#N)c(N)c3c(SC)c2C1 (centres unmarked) [Example 54] | > 10000 | –
Cc1cc(C(=O)Nc2cccc([C@@H](CN)NC(=O)c3cc4cc5c(nc4s3)CC[C@@H](C(C)(C)C)C5)c2)nn1C [Example 244] | < 100 | –
COC(=O)C(CO)NC(=O)c1cc2cc3c(nc2s1)CCC(C(C)(C)C)C3 (centres unmarked) [Example 94] | 100 to 1000 | –
C[C@H]1CNCCN1C(=O)Nc1cccc([C@@H](CN)NC(=O)c2cc3cc4c(nc3s2)CC[C@@H](C(C)(C)C)C4)c1 [Example 276] | < 100 | –
CC(C)(C)C1CCc2nc3c(cc2C1)C(N)=C(C#N)S3(=O)=O (centres unmarked) [Example 127, 3-Amino-6-tert-butyl-1,1-dioxo-5,6,7,8-tetrahydro-1H-1λ^6-thieno[2,3-b]quinoline-2-carbonitrile] | 1000 to 10000 | –
CCC(C)(C)C1CCc2nc3sc(C#N)cc3cc2C1 (centres unmarked) [Example 59] | < 100 | IC50 [2]: 55 nM
CN1CCN(C(=O)c2cc3cc4c(nc3s2)CCC(C(C)(C)C)C4)CC1 (centres unmarked) [Example 97] | > 10000 | –
